# Legend:
# [1] = Chelation of metal ions in aqueous solutions; type: physicochemical
# Protocol: (§1) The 1,1,3-trisubstituted hydroxyguanidines of the invention chelate metal ions in aqueous solutions, and the chelate complexes can then be extracted by a solvent such as 1-butanol. The following is an example.
# (§2) Aqueous solutions of cobaltous chloride and cupric acetate were prepared by dissolving 0.5 g in separate 5 ml portions of water. One ml of each solution was mixed with 1 ml of an aqueous methanol solution of 1,3-dimethyl-1-benzyl-2-hydroxyguanidine made by dissolving 0.2 g of the hydroxyguanidine in 5 ml methanol and 5 ml water. The addition was followed by an immediate color change.
# [2] = tested on: tetrabenazine-induced ptosis in mice; experiment: Prevention of tetrabenazine-induced sedation and depression in mice (relief of ptosis); type: in vivo, Carworth CF1 S female mice; settings: Mus musculus, 1 h; oral; 5, 25 and 125 mg/kg; tetrabenazine 32 mg/kg i.p. 30 min later; read 30 min after tetrabenazine; groups of 10 female mice; read-out: ptosis ED50, i.e., the dose which blocked ptosis in 50% of the mice
# Protocol: This mouse test is predictive of human antidepressant response (Everett, G.M., "The Dopa Response Potentiation Test and Its Use In Screening for Antidepressant Drugs", pp. 164-167 in "Antidepressant Drugs", Proceeding of the First International Symposium, S. Garattini and M. N. G. Dukes, eds., 1967).
# Groups of 10 Carworth CF1 S female mice, 18-21 g each, were fasted 1.5 hours and were intubated with a hydroxyguanidine as antagonist to tetrabenazine at oral doses of 5, 25 and 125 mg/kg in 0.20 ml of 1% methyl cellulose (Methocel). Thirty minutes later the mice were challenged with tetrabenazine, 32 mg/kg intraperitoneally (dissolved in 0.20 ml of 0.05M KCl at pH 2.0). One hour after the hydroxyguanidine compound (30 minutes after tetrabenazine) the mice were examined for signs of exploratory activity and ptosis (eye-lid closure). Normal exploratory activity (relief from sedation) was recorded when a mouse lifted by the tail from a group of 10 in a testing box and placed on a stainless steel testing box lid (12.5 inches × 8 inches with 0.33 inch mesh) either turned its head horizontally 30° or moved to the edge of the screen within 10 seconds after being placed on the screen. Relief from ptosis was recorded when exactly 2 seconds after placing the mouse facing the observer, lid closure was less than 50% in both eyes. […]
# [3] = Chelation of cobalt ions (cobaltous chloride) in aqueous solution; type: physicochemical; settings: cobaltous chloride in water mixed with aqueous methanol solution of hydroxyguanidine
# Protocol: as §1, §2
# [4] = Chelation of copper ions (cupric acetate) in aqueous solution; type: physicochemical; settings: cupric acetate in water mixed with aqueous methanol solution of hydroxyguanidine
# Protocol: as §1, §2
# [5] = Complex formation with titanium (tetraisopropyl titanate); type: physicochemical; settings: methanol solution of tetraisopropyl titanate
structure (smiles),measurement,setting,value
"CNC(=NO)N(C)c1ccccc1 [Example 2, 1-Phenyl-1,3-dimethyl-2-hydroxyguanidine]",chelating of metal ions,[1]; aqueous solutions,Chelating also occured
"CCNC(=NO)N(C)c1ccccc1 [Example 3, 1-Phenyl-1-methyl-3-ethyl-2-hydroxyguanidine]",ED50,[2],2.7 mg/kg
"CNC(=NO)N(C)Cc1ccccc1 [Example 4, 1-Benzyl-1,3-dimethyl-2-hydroxyguanidine]",immediate color change of cobalt solution,[3],from red to pink
same,immediate color change of copper solution,[4],from blue to green
same,complex of titanium with the hydroxyguanidine,[5],a bright yellow complex of titanium with the hydroxyguanidine was formed
same,extraction of the metal ion from water into 1-butanol,[1]; cobalt and copper solutions shaken with 2-3 ml of 1-butanol,"colored organic layers, indicative of extraction of the metal ion from the water"
"CCNC(=NO)N(C)Cc1ccccc1 [Example 5, 1-Benzyl-1-methyl-3-ethyl-2-hydroxyguanidine]",ED50,[2],19 mg/kg

# From US4000196A, “1,1,3-Trisubstituted hydroxyguanidines” (E. I. Du Pont de Nemours and Company, priority 1974, dated 1976)
